For five compounds, Ki and Kb results are on record in ChEMBL document CHEMBL1142532, “Modular synthesis of non-peptidic bivalent NPY Y1 receptor antagonists” (Bioorg Med Chem, 2008).

The target in assay [1] is T1, Neuropeptide Y receptor type 1 (Homo sapiens, UniProt P25929).
T1 sequence (P25929 whole entry): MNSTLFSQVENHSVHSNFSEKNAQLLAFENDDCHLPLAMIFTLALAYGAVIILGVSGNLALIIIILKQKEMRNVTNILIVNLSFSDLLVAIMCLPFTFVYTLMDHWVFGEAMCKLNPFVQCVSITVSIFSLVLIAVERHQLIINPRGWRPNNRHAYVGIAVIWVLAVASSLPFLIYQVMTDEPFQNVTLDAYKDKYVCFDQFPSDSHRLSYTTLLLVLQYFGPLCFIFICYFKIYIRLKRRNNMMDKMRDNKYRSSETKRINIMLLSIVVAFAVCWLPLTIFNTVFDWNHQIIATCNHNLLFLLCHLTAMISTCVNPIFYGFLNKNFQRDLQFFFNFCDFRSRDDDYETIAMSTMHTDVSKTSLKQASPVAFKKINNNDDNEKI
Put plainly: Displacement of NG-([2,3-3H]propionyl)-BIBP-3226 from NPY Y1 receptor in human SK-N-MC cells. Type of assay: cell-based.

In assay [2] the target is T2, Neuropeptide Y receptor type 1 (Homo sapiens) (UniProt P25929).
T2 sequence (whole entry): T1 sequence (P25929 whole entry)
Description: Antagonist activity at NPY Y1 receptor in HEL cells assessed as inhibition of NPY-induced increase in intracellular calcium mobilization by Fura-2 assay. Type of assay: functional, cell-based. (In general: A change in cytosolic calcium serves as a functional read-out for many receptors and channels.)

In general, Ki refers to the equilibrium dissociation constant of an inhibitor or competing ligand from its target. As usually defined, the Kb is the affinity of an antagonist, worked out from how it opposes an agonist. In assay [1], `N/C(=N/C(=O)CCCn1cc(-c2ccccc2)nn1)NCCC[C@@H](NC(=O)C(c1ccccc1)c1ccccc1)C(=O)NCc1ccc(O)cc1` yielded a Ki of 49 nM. Moreover, the Kb in assay [2] was found to be 0.9 nM.
In the case of `N/C(=N/C(=O)c1ccc(Cn2cc(CN(Cc3cn(Cc4ccc(C(=O)/N=C(/N)NCCC[C@@H](NC(=O)C(c5ccccc5)c5ccccc5)C(=O)NCc5ccc(O)cc5)cc4)nn3)Cc3cn(Cc4ccc(C(=O)/N=C(/N)NCCC[C@@H](NC(=O)C(c5ccccc5)c5ccccc5)C(=O)NCc5ccc(O)cc5)cc4)nn3)nn2)cc1)NCCC[C@@H](NC(=O)C(c1ccccc1)c1ccccc1)C(=O)NCc1ccc(O)cc1`, the Ki in assay [1] is greater than 50000 nM.
Regarding `N/C(=N/C(=O)CCCn1cc(-c2ccc(-c3cn(CCCC(=O)/N=C(\N)NCCC[C@@H](NC(=O)C(c4ccccc4)c4ccccc4)C(=O)NCc4ccc(O)cc4)nn3)cc2)nn1)NCCC[C@@H](NC(=O)C(c1ccccc1)c1ccccc1)C(=O)NCc1ccc(O)cc1`, in assay [1], the affinity corresponds to a Ki of 43 nM. In addition, the Kb in assay [2] is 0.6 nM.
The compound `N/C(=N/C(=O)COCCOCCOCC(=O)/N=C(\N)NCCC[C@@H](NC(=O)C(c1ccccc1)c1ccccc1)C(=O)NCc1ccc(O)cc1)NCCC[C@@H](NC(=O)C(c1ccccc1)c1ccccc1)C(=O)NCc1ccc(O)cc1` returned a Ki in assay [1] of 6.1 nM. In addition, the Kb in assay [2] stood at 7 nM.
In assay [1], `N/C(=N/C(=O)CCCn1cc(COCCOCCOCCOCCOCc2cn(CCCC(=O)/N=C(\N)NCCC[C@@H](NC(=O)C(c3ccccc3)c3ccccc3)C(=O)NCc3ccc(O)cc3)nn2)nn1)NCCC[C@@H](NC(=O)C(c1ccccc1)c1ccccc1)C(=O)NCc1ccc(O)cc1` displayed a Ki of 58 nM. In addition, the Kb in assay [2] was 1.8 nM.
